From patent US20230233566A1, “INHIBITION OF BMI1 ELIMINATES CANCER STEM CELLS AND ACTIVATES ANTITUMOR IMMUNITY” (The Regents of the University of California, priority 2020, published 2023)

Experiments:
CD8+ T cells = experiment: Immunostaining of CD8+ T cells in HNSCC; format: in vivo, mouse
Protocol: (§1) The immunocomplexes were detected and visualized using related secondary antibodies conjugated with Cy2 or Cy3 (Jackson ImmunoResearch Laboratories). […] At least three sections from each HNSCC lesions were immunostained and analyzed. Tumor cells (>150) and CD8+, Ac-casp3+ and Tomato^+ cells of these tumor cell areas were counted manually in each section. The percentage of CD8+, Ac-casp3^+ and Tomato^+ cells were calculated by dividing those cells with tumor cells and averaged from the sections.

BMI1+ CSCs [1] = experiment: In vivo labeling and lineage tracing of Tomato+ BMI1+ CSCs; design: species or system mouse; details: tamoxifen 1 day prior to sacrifice, treated 4 weeks
Protocol: as §1

HNSCC = experiment: 4NQO mouse model of HNSCC: lesion area, histology, invasion grade
Protocol: Bmi1^CreER (JAX:010531) and R26^tdTomato (JAX:007908) mouse strains were cross-mated to generate Bmi1^CreER;R26^tdTomato. K14^CreER (JAX:005107) and Bmi1^flox/flox (JAX: 028974) mouse strains were cross-mated to generate K14^CreER; Bmi1^flox/flox. […] For induction of HNSCC, six-week-old mice were treated with drinking water containing 50 ug/ml 4NQO (Santa Cruz, Cat #256815) for 16 weeks and then given normal drinking water for tumor formation and lymph node metastasis. For lineage tracing and Bmi1 knock out studies, mice were intraperitoneally injected with tamoxifen (9 mg per 40 g body weight; Sigma-Aldrich, Cat #T5648) to activate Cre.
Cisplatin (Sigma-Aldrich, Cat #479306) was dissolved in saline. PTC209 (MedChem Express, Cat #HY-15888) was dissolved in 14% DMSO, 36% polyethylene glycol 400 (Sigma-Aldrich, Cat #202304) and 50% polypropylene glycol (Sigma-Aldrich Cat #4347). […]
Briefly, mice were sacrificed, and tongues and cervical lymph nodes were harvested immediately and the lesion surface areas were measured. […] The SCC number was counted and areas were measured as described before (Chen et al., 2017). The HNSCC invasiveness was scored based on the following criteria: showing signs of normal or epithelial dysplasia appearance (grade 1); distinct invasion, unclearness of basement membrane, drop and diffuse infiltration into the superficial portion of the muscle layer (grade 2); loss of the basement membrane, extensive invasion into deep muscle layer (grade 3). To assess lymph node metastasis, the sections of cervical lymph nodes were immunostained with anti-PCK antibodies which specifically detected epithelial tumor cells in lymph nodes (Santa Cruz, Cat #sc-8018). The percentage of lymph nodes with metastasis and their metastatic areas were measured.

BMI1 [2] = experiment: BMI1 expression in HNSCC tumors by immunostaining and Western blot; format: in vivo, mouse; details: HNSCC, FIG. 18
Protocol: Cells were lysed using the radioimmunoprecipitation assay (RIPA) buffer (Sigma-Aldrich, Cat #R0278) added with a cocktail of protease inhibitors (Thermo Fisher Scientific, Cat ##78430) and phosphatase inhibitors (Sigma-Aldrich, Cat #4906845001). Protein extracts were resolved on a 10% or 15% SDS polyacrylamide gel and then transferred to a polyvinylidene difluoride membrane. Membranes were blocked with 5% milk for 1 h and incubated with primary antibodies overnight at 4° C. […] The signals were detected using the Clarity Western ECL kit (Bio-Rad, Cat #1705060). […] After treatment, supernatants were collected, and the protein levels of CCL5, CXCL9, CXCL10 and CXCL11 were measured with ELISA (R&D Systems, Cat #DRN00B, DCX900, DIP100, DCX110) according to the manufacturer's instructions.

[3] = phase 1 study; cited from earlier work
cytosolic dsDNA = experiment: Cytosolic dsDNA staining (PicoGreen/MitoTracker); format: cell-based, human; details: SCC23 and SCC1 cells
Protocol: Following the treatment, SCC23 and SCC1 cells were incubated with culture media containing PicoGreen (dsDNA stain, 200-fold dilution, Thermo Fisher Scientific, Cat #P11496) and MitoTracker ([…], 100 nM, Thermo Fisher Scientific, Cat #M7512). One hour after incubation, cells were fixed with 4% paraformaldehyde for 10 min. Cells were then washed twice with PBS and stained with DAPI (Sigma-Aldrich, Cat #D9542) and mounted with SlowFade Antifade Reagents (Thermo Fisher Scientific, Cat #536937). Staining was imaged and assessed using a Leica SP5X laser scanning confocal microscope.

SCC23 cells = experiment: qRT-PCR of ATM, DNA-PKcs, MRE11, JUN, FOSL1, MMP3, MMP9 in SCC23 cells; format: cell-based, human
Protocol: (§2) For qRT-PCR, total RNA was prepared using TRIzol reagent (Thermo Fisher Scientific Cat #15596026), and 1 μg of RNA was reversely transcribed with random primer (Thermo Fisher Scientific Cat #48190011), dNTP mix (Thermo Fisher Scientific, Cat #18427013), and M-MuLV Reverse Transcriptase (New England Biolabs, Cat #M0253L). The levels of mRNA were […] measured using a SYBRGreen supermix (Bio-Rad, Cat #1708880). GAPDH was used as an internal control.

IFNβ = experiment: qRT-PCR of IFNβ mRNA; format: cell-based, human; details: SCC23 cells
Protocol: as §2

BMI1 [4] = experiment: Western blot of BMI1 and H2AUb in SCC23 and SCC1 cells; format: cell-based, human
Protocol: Human SCC23 and SCC1 cells were grown in DMEM containing 10% FBS and antibiotics (streptomycin and penicillin) at 37° C. in a 5% CO2 atmosphere. To generate lentiviruses, scramble control (shCtrl, Addgene, Cat #1864; see Sarbassov et al Science 2005 Feb. 18; 307(5712):1098-101) and BMI1 specific shRNA lentiviral plasmids (shBmi1, Sigma-Aldrich, Cat #TRCN0000020156, comprising […], SEQ ID NO:35) were transfected into HEK293T cells with two helper plasmids psPAX2 (Addgene, Cat #12260) and pMD2.G (Addgene, Cat #12259). Viral supernatant was harvested 72 h after transfection and passed through a 0.45 μm filter to remove cell debris and live cells. Collected lentiviruses were used directly to infect cells with the addition of polybrene (Sigma-Aldrich, Cat #H9268), or frozen at −80° C. for later use. […]
Cells were lysed using the radioimmunoprecipitation assay (RIPA) buffer (Sigma-Aldrich, Cat #R0278) added with a cocktail of protease inhibitors (Thermo Fisher Scientific, Cat ##78430) and phosphatase inhibitors (Sigma-Aldrich, Cat #4906845001). […] The signals were detected using the Clarity Western ECL kit (Bio-Rad, Cat #1705060). […] After treatment, supernatants were collected, and the protein levels of CCL5, CXCL9, CXCL10 and CXCL11 were measured with ELISA (R&D Systems, Cat #DRN00B, DCX900, DIP100, DCX110) according to the manufacturer's instructions.

[5] = test system: promoters of CCL5, CXCL9, CXCL10 and CXCL11; experiment: ChIP-qPCR on chemokine promoters; format: cell-based, human; details: SCC23 cells
Protocol: ChIP-qPCR assays were performed as previously described (Ding et al, 2013). Briefly, SCC cells were sequentially treated with dimethyl 3,3′-dithiobispropionimidate-HCl (DTBP; Cat #20665, Thermo Fisher Scientific) solution and formaldehyde, and harvested with a cell scraper. The cell pellet was lysed with ChIP lysis buffer and sonicated to generate 200-500 bp DNA fragments with a sonicator. The fragmented chromatins were immunoprecipitated with anti-BMI1 (Cell Signaling Technology, Cat #6964), anti-Ubiquityl-Histone H2A (Lys119) (Cell Signaling Technology, Cat #8240) overnight at 4° C. The precipitated DNA-chromatin products were purified with ChIP DNA clean & concentrator kit (Cat #D5205, Zymo Research) and the DNA levels were quantified by qPCR. Data is presented as the percentage of input DNA.

pH2A.X = experiment: DNA damage in SCC23 and SCC1 cells (pH2A.X, alkaline comet assay); format: cell-based, human
Protocol: (§3) Cells were lysed using the radioimmunoprecipitation assay (RIPA) buffer (Sigma-Aldrich, Cat #R0278) added with a cocktail of protease inhibitors (Thermo Fisher Scientific, Cat ##78430) and phosphatase inhibitors (Sigma-Aldrich, Cat #4906845001). Protein extracts were resolved on a 10% or 15% SDS polyacrylamide gel and then transferred to a polyvinylidene difluoride membrane. Membranes were blocked with 5% milk for 1 h and incubated with primary antibodies overnight at 4° C. Primary antibodies used in this study were: anti-phospho-STING (Ser366) (1:1,000; Cell Signaling Technology, Cat #19781), anti-STING (1:1,000; Cell Signaling Technology, Cat #13647), anti-phospho-TBK1 (Ser172) (1:1,000; Cell Signaling Technology, Cat #5483), anti-TBK1 (1:1,000; Cell Signaling Technology, Cat #3504), anti-phospho-IRF3 (Ser396) (1:1,000; Cell Signaling Technology, Cat #29047), anti-IRF3 (1:1,000; Cell Signaling Technology, Cat #4302), anti-BMI1 (1:1,000; Cell Signaling Technology, Cat #6964), anti-Ubiquityl-Histone H2A (Lys119) (1:1000, Cell Signaling Technology, Cat #8240), anti-phospho Histone H2A.X (Ser139) (1:1000; Cell Signaling Technology, Cat #9718), and anti-GAPDH (1:1000; Cell Signaling Technology, Cat #5174), anti-Histone H3 (1:2,000; Cell Signaling Technology, Cat #4499). The signals were detected using the Clarity Western ECL kit (Bio-Rad, Cat #1705060). To measure the protein levels of CCL5, CXCL9, CXCL10 and CXCL11, cells were treated with PTC209 or shBMI1 knockdown for 48 hr. After treatment, supernatants were collected, and the protein levels of CCL5, CXCL9, CXCL10 and CXCL11 were measured with ELISA (R&D Systems, Cat #DRN00B, DCX900, DIP100, DCX110) according to the manufacturer's instructions.
Single cell gel electrophoresis comet assays were performed using the SCGE assay Kit (Enzo Life Sciences, Cat #ADI-900-166). Following the treatment, cells were mixed with low melting point agarose at a volume ratio of 1:50, and 100 μl of aliquots were loaded onto pre-warmed slides. Slides were incubated in pre-chilled lysis solution for 1 h and then in pre-chilled alkaline solution for 1 h. Electrophoresis was run at 22 V in the TBE buffer for 30 min. Comets were stained with CYGREEN dye for 30 min and imaged. 50 individual cells at least per sample were evaluated in duplicates by the CASP Version 1.2.2 analysis tool.

[6] = test system: cGAS-STING-IRF3 signaling; experiment: Western blot of phosphorylated STING, TBK1, IRF3; format: cell-based, human
Protocol: as §3

BMI1+ CSCs [7] = experiment: BMI1 immunostaining of CSCs in HNSCC; format: in vivo, mouse; details: FIG. 16C-16D
HNSCC tumor cells = experiment: Anti-active caspase-3 (Ac-casp3) immunostaining of apoptosis in HNSCC; format: in vivo, mouse; details: given concurrently with PTC209 plus anti-PD1
Protocol: as §1

[8] = test system: HNSCC lymph node metastasis; experiment: Cervical lymph node metastasis by anti-PCK immunostaining; format: in vivo, mouse; details: given concurrently with PTC209 plus anti-PD1
Protocol: Tumor growth and cervical lymph node metastasis were examined as described before (Chen et al., 2017). Briefly, mice were sacrificed, and tongues and cervical lymph nodes were harvested immediately and the lesion surface areas were measured. For histological analysis and immunostaining, longitudinally cut tongues (dorsal/ventral) and intact lymph nodes were fixed overnight in 10% buffered formalin and paraffin-embedded. Tissue blocks were cut into 10-15 sections in 4 μm thickness and stained with hematoxylin and eosin (H&E). The SCC number was counted and areas were measured as described before (Chen et al., 2017). […] To assess lymph node metastasis, the sections of cervical lymph nodes were immunostained with anti-PCK antibodies which specifically detected epithelial tumor cells in lymph nodes (Santa Cruz, Cat #sc-8018). The percentage of lymph nodes with metastasis and their metastatic areas were measured.

BMI-1 = BMI-1 (Homo sapiens, UniProt P35226); details: cell-free assay; cited from earlier work
Sequence of BMI-1 (P35226 whole entry, species assumed): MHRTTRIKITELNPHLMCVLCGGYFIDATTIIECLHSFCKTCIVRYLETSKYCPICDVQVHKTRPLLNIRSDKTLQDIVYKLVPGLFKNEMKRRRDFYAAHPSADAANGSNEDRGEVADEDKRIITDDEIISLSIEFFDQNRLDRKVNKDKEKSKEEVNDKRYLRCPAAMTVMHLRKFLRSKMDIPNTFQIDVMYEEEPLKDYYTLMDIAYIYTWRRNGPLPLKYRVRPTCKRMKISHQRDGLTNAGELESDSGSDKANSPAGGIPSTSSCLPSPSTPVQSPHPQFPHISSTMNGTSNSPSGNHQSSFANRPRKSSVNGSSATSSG
Sequence of BMI-1 (Q06587 whole entry partner, species assumed): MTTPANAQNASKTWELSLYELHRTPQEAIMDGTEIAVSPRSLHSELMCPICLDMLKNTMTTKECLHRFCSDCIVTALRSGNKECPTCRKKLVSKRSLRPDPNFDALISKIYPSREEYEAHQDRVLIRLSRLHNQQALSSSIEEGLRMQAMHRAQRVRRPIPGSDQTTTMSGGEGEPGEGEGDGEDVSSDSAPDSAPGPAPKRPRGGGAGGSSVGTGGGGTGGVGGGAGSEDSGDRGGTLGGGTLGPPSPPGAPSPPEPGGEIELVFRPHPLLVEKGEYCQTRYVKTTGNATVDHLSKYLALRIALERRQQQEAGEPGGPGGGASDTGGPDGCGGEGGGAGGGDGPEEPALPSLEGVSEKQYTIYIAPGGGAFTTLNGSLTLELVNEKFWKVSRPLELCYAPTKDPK

[9] = given concurrently with PTC209 plus anti-PD1

Molecule: N.N.[Cl][Pt][Cl] [cisplatin]
- CD8+ T cell infiltration in HNSCC (CD8+ T cells; 4NQO-induced HNSCC, treated 4 weeks): did not significantly increase CD8+ T cell infiltration
- BMI1+ CSCs in HNSCC (in vivo labeling) (BMI1+ CSCs [1]): significantly enriched BMI1^+ CSCs
- lesion surface areas (HNSCC; 4NQO-induced HNSCC, Bmi1CreER;RosatdTomato mice, treated 4 weeks): reduced the lesion surface areas
- Bmi1 expression in Tomato+ CSCs (MFI of BMI1 staining) (BMI1 [2]): induces Bmi1 expression in Tomato^+ CSCs

Molecule: Cc1nc2ccc(F)cc2n1-c1nc(N)c(F)c(Nc2ccc(C(F)(F)F)cc2)n1 [PTC596, 5-fluoro-2-(6-fluoro-2-methyl-1H-benzimidazol-1-yl)-N-[4-(trifluoromethyl)phenyl]pyrimidine-4,6-diamine]
- tolerability [3]: tolerable with manageable gastrointestinal side effects

Molecule: shBMI1: BMI1 specific shRNA lentiviral plasmids (Sigma-Aldrich, Cat #TRCN0000020156), SEQ ID NO:35 (CCGGCCTAATACTTTCCAGATTGATCTCGAGATCAATCTGGAAAGTATTAGGTTTTT)
- accumulation of cytosolic dsDNA (cytosolic dsDNA): induced the accumulation of cytosolic dsDNA
- ATM, DNA-PKcs, and MRE11 mRNA expression (SCC23 cells): does not affect the expression of ATM, DNA-PKcs, and MRE11
- JUN, FOSL1, MMP3, and MMP9 mRNA expression (SCC23 cells): does not change the expression of JUN, FOSL1, MMP3, and MMP9 significantly
- IFNβ mRNA expression (IFNβ): induction of IFNβ mRNA expression in SCC23 cells
- BMI1 and H2AUb levels (BMI1 [4]): reduced the expression of BMI1
- levels of BMI1 on the promoters of CCL5, CXCL9, CXCL10 and CXCL11 [5]: reduction of BMI1 occupied on the promoters of CCL5, CXCL9, CXCL10, and CXCL11 in SCC23 cells
- levels of H2AUb marks on the promoters of CCL5, CXCL9, CXCL10 and CXCL11 [5]: reduction of H2AUb levels on the promoters of CCL5, CXCL9, CXCL10, and CXCL11 in SCC23 cells
- Olive tail moment (pH2A.X; alkaline comet assay): significantly increased the Olive tail moment in SCC23 and SCC1 cells
- pH2A.X (pH2A.X; immunostaining and Western blot): increased pH2A.X in SCC23 and SCC1 cells
- phosphorylation of STING (S366), TBK1 (S172) and IRF3 (S396) ([6]; SCC1 cells): induction of phosphorylation of STING (S366), TBK1 (S172) and IRF3 (S396) in SCC1 cells
- phosphorylation of STING (S366), TBK1 (S172) and IRF3 (S396) ([6]; SCC23 cells): induction of phosphorylation of STING (S366), TBK1 (S172) and IRF3 (S396) in SCC23 cells

Molecule: Cc1ccc(-c2ccc3c(c2)C=C(C(=O)Nc2ccc(C[N+](C)(C)C4CCOCC4)cc2)CCC3)cc1.[Cl-] [TAK779]
- CD8+ T cells infiltration in HNSCC (CD8+ T cells; [9]): significantly abrogated CD8+ T cells infiltration in HNSCC
- HNSCC growth (histological analysis) (HNSCC; [9]): significantly reversed the inhibition of HNSCC growth
- visible lesion areas (HNSCC; [9]): significantly restored visible lesion areas
- BMI1+ CSCs in HNSCC (strong BMI1 staining) (BMI1+ CSCs [7]): does not affect CSCs in HNSCC
- apoptosis in HNSCC (HNSCC tumor cells): attenuated apoptosis in HNSCC
- lymph node metastasis of HNSCC [8]: significantly lessened the inhibition of lymph node metastasis

Molecule: O=C1C(=Cc2cccnc2)C(=O)c2ccccc21 [PRT4165, 2-(3-pyridinylmethylene)-1H-indene-1,3(2H)-dione]
- IC50 (BMI-1): 3.9 µM
